Data on eight molecules can be found in PubChem BioAssay AID194 (DTP/NCI, 2004).

The structures appear in SMILES notation. Records with an inconclusive call do not appear.

The assay has as its system BDF1 mice, B16 melanoma s.c., survival/tumor T/C. In words: NCI In Vivo Anticancer Drug Screen. Data for tumor model B16 Melanoma (subcutaneous) in B6D2F1 (BDF1) mice. As to the method:
The antitumor activity of compounds was measured in mice bearing transplantable tumors. Survival or tumor size were measured and the results are expressed as the measurement made in the treated group (T) divided by the measurement made in the vehicle treated control group (C). The tumor model used in this assay is B16 Melanoma (subcutaneous) in B6D2F1 (BDF1) mice

Turning to `O=NN(CCF)C(=O)NC1CCCCC1`, the T/C is, setting by setting: (endpoint: median survival time, dose: 0.63 mg/kg/injection, schedule: Q01HX012 (ip), vehicle: Klucel (hydroxypropylcellulose) (HPC), higher = longer survival) 123 % of control; (endpoint: median survival time, dose: 1.25 mg/kg/injection, schedule: Q01HX012 (ip), vehicle: Klucel (hydroxypropylcellulose) (HPC), higher = longer survival) 107 % of control; (endpoint: median survival time, dose: 1.25 mg/kg/injection, schedule: Q02HX006 (ip), vehicle: Klucel (hydroxypropylcellulose) (HPC), higher = longer survival) 96 % of control; (endpoint: median survival time, dose: 1.88 mg/kg/injection, schedule: Q03HX004 (ip), vehicle: Klucel (hydroxypropylcellulose) (HPC), higher = longer survival) 96 % of control; (endpoint: median survival time, dose: 2.5 mg/kg/injection, schedule: Q02HX006 (ip), vehicle: Klucel (hydroxypropylcellulose) (HPC), higher = longer survival) 101 % of control; (endpoint: median survival time, dose: 3.11 mg/kg/injection, schedule: Q01DX007 (ip), vehicle: Klucel (hydroxypropylcellulose) (HPC), higher = longer survival) 98 % of control. Further, the T/C (endpoint: median survival time, dose: 5.0 mg/kg/injection, schedule: Q01HX012 (ip), vehicle: Klucel (hydroxypropylcellulose) (HPC), higher = longer survival) is 242 % of control; the T/C (endpoint: median survival time, dose: 5.0 mg/kg/injection, schedule: Q02HX006 (ip), vehicle: Klucel (hydroxypropylcellulose) (HPC), higher = longer survival) was 115 % of control; the T/C (endpoint: median survival time, dose: 5.18 mg/kg/injection, schedule: Q01DX007 (ip), vehicle: Klucel (hydroxypropylcellulose) (HPC), higher = longer survival) is 102 % of control; the T/C (endpoint: median survival time, dose: 7.5 mg/kg/injection, schedule: Q01DX001 (ip), vehicle: Klucel (hydroxypropylcellulose) (HPC), higher = longer survival) was 107 % of control; the T/C (endpoint: median survival time, dose: 7.5 mg/kg/injection, schedule: Q03HX004 (ip), vehicle: Klucel (hydroxypropylcellulose) (HPC), higher = longer survival) is 115 % of control; the T/C (endpoint: median survival time, dose: 10.0 mg/kg/injection, schedule: Q02HX006 (ip), vehicle: Klucel (hydroxypropylcellulose) (HPC), higher = longer survival) is 261 % of control. Further, the T/C reads like this: (endpoint: median survival time, dose: 14.4 mg/kg/injection, schedule: Q01DX007 (ip), vehicle: Klucel (hydroxypropylcellulose) (HPC), higher = longer survival) 120 % of control; (endpoint: median survival time, dose: 15.0 mg/kg/injection, schedule: Q01DX001 (ip), vehicle: Klucel (hydroxypropylcellulose) (HPC), higher = longer survival) 119 % of control; (endpoint: median survival time, dose: 15.0 mg/kg/injection, schedule: Q03HX004 (ip), vehicle: Klucel (hydroxypropylcellulose) (HPC), higher = longer survival) 157 % of control; (endpoint: median survival time, dose: 15.8 mg/kg/injection, schedule: Q01DX007 (ip), vehicle: Klucel (hydroxypropylcellulose) (HPC), higher = longer survival) 115 % of control; (endpoint: median survival time, dose: 20.0 mg/kg/injection, schedule: Q02HX006 (ip), vehicle: Klucel (hydroxypropylcellulose) (HPC), higher = longer survival) 88 % of control; (endpoint: median survival time, dose: 23.7 mg/kg/injection, schedule: Q01DX007 (ip), vehicle: Klucel (hydroxypropylcellulose) (HPC), higher = longer survival) 68 % of control. In addition, the T/C is 164 % of control (endpoint: median survival time, dose: 30.0 mg/kg/injection, schedule: Q01DX001 (ip), vehicle: Klucel (hydroxypropylcellulose) (HPC), higher = longer survival); 326 % of control (endpoint: median survival time, dose: 30.0 mg/kg/injection, schedule: Q03HX004 (ip), vehicle: Klucel (hydroxypropylcellulose) (HPC), higher = longer survival); 69 % of control (endpoint: median survival time, dose: 35.6 mg/kg/injection, schedule: Q01DX007 (ip), vehicle: Klucel (hydroxypropylcellulose) (HPC), higher = longer survival); 60 % of control (endpoint: median survival time, dose: 53.3 mg/kg/injection, schedule: Q01DX007 (ip), vehicle: Klucel (hydroxypropylcellulose) (HPC), higher = longer survival); 238 % of control (endpoint: median survival time, dose: 60.0 mg/kg/injection, schedule: Q01DX001 (ip), vehicle: Klucel (hydroxypropylcellulose) (HPC), higher = longer survival); 55 % of control (endpoint: median survival time, dose: 80.0 mg/kg/injection, schedule: Q01DX007 (ip), vehicle: Klucel (hydroxypropylcellulose) (HPC), higher = longer survival). Moreover, the T/C by setting is: (endpoint: median tumor weight (est.), dose: 1.25 mg/kg/injection, schedule: Q01HX012 (ip), vehicle: Klucel (hydroxypropylcellulose) (HPC), higher = larger tumour) 59 % of control; (endpoint: median tumor weight (est.), dose: 1.25 mg/kg/injection, schedule: Q02HX006 (ip), vehicle: Klucel (hydroxypropylcellulose) (HPC), higher = larger tumour) 114 % of control; (endpoint: median tumor weight (est.), dose: 1.88 mg/kg/injection, schedule: Q03HX004 (ip), vehicle: Klucel (hydroxypropylcellulose) (HPC), higher = larger tumour) 61 % of control; (endpoint: median tumor weight (est.), dose: 2.5 mg/kg/injection, schedule: Q01HX012 (ip), vehicle: Klucel (hydroxypropylcellulose) (HPC), higher = larger tumour) 10 % of control; (endpoint: median tumor weight (est.), dose: 2.5 mg/kg/injection, schedule: Q02HX006 (ip), vehicle: Klucel (hydroxypropylcellulose) (HPC), higher = larger tumour) 67 % of control; (endpoint: median tumor weight (est.), dose: 3.75 mg/kg/injection, schedule: Q03HX004 (ip), vehicle: Klucel (hydroxypropylcellulose) (HPC), higher = larger tumour) 83 % of control. Moreover, the T/C reads like this: (endpoint: median tumor weight (est.), dose: 5.0 mg/kg/injection, schedule: Q02HX006 (ip), vehicle: Klucel (hydroxypropylcellulose) (HPC), higher = larger tumour) 26 % of control; (endpoint: median tumor weight (est.), dose: 7.5 mg/kg/injection, schedule: Q01DX001 (ip), vehicle: Klucel (hydroxypropylcellulose) (HPC), higher = larger tumour) 110 % of control; (endpoint: median tumor weight (est.), dose: 7.5 mg/kg/injection, schedule: Q03HX004 (ip), vehicle: Klucel (hydroxypropylcellulose) (HPC), higher = larger tumour) 70 % of control; (endpoint: median tumor weight (est.), dose: 15.0 mg/kg/injection, schedule: Q01DX001 (ip), vehicle: Klucel (hydroxypropylcellulose) (HPC), higher = larger tumour) 70 % of control.

Regarding `O`, the T/C is, setting by setting: (endpoint: median survival time, dose: 50.0 mg/kg/injection, schedule: Q02DX009 (ip), vehicle: saline, higher = longer survival) 94 % of control; (endpoint: median survival time, dose: 100.0 mg/kg/injection, schedule: Q02DX009 (ip), vehicle: saline, higher = longer survival) 101 % of control; (endpoint: median survival time, dose: 200.0 mg/kg/injection, schedule: Q02DX009 (ip), vehicle: saline, higher = longer survival) 118 % of control; (endpoint: median survival time, dose: 400.0 mg/kg/injection, schedule: Q02DX009 (ip), vehicle: saline, higher = longer survival) 98 % of control.

For `CC1OC(=O)C(C(C)C)NC(=O)C(C(C)C)OC(=O)C(C(C)C)NC(=O)C(C)OC(=O)C(C(C)C)NC(=O)C(C(C)C)OC(=O)C(C(C)C)NC(=O)C(C)OC(=O)C(C(C)C)NC(=O)C(C(C)C)OC(=O)C(C(C)C)NC1=O` (stereo not drawn), the T/C reads like this: (endpoint: median survival time, dose: 3.4 mg/kg/injection, schedule: Q01DX009 (ip), vehicle: saline with Tween-80, higher = longer survival) 86 % of control; (endpoint: median survival time, dose: 5.0 mg/kg/injection, schedule: Q01DX009 (ip), vehicle: saline with Tween-80, higher = longer survival) 86 % of control; (endpoint: median survival time, dose: 7.5 mg/kg/injection, schedule: Q01DX009 (ip), vehicle: saline with Tween-80, higher = longer survival) 91 % of control; (endpoint: median survival time, dose: 15.0 mg/kg/injection, schedule: Q04DX003 (ip), vehicle: saline with Tween-80, higher = longer survival) 86 % of control; (endpoint: median survival time, dose: 20.0 mg/kg/injection, schedule: Q04DX003 (ip), vehicle: saline with Tween-80, higher = longer survival) 90 % of control; (endpoint: median survival time, dose: 30.0 mg/kg/injection, schedule: Q01DX001 (ip), vehicle: saline with Tween-80, higher = longer survival) 86 % of control. For the same molecule, the T/C (endpoint: median survival time, dose: 30.0 mg/kg/injection, schedule: Q04DX003 (ip), vehicle: saline with Tween-80, higher = longer survival) is 91 % of control and the T/C (endpoint: median survival time, dose: 45.0 mg/kg/injection, schedule: Q01DX001 (ip), vehicle: saline with Tween-80, higher = longer survival) is 97 % of control.

On to `COC1C(O)C(C)OC(OC2C(Oc3cccc4c(O)c5c(=O)oc6ccc(C)c7c(=O)oc(c34)c5c67)OC(C)C(O)C2O)C1O` (stereo not drawn), for which the T/C is 95 % of control (endpoint: median survival time, dose: 6.25 mg/kg/injection, schedule: Q01DX009 (ip), vehicle: other, higher = longer survival); 104 % of control (endpoint: median survival time, dose: 12.5 mg/kg/injection, schedule: Q01DX009 (ip), vehicle: other, higher = longer survival); 100 % of control (endpoint: median survival time, dose: 25.0 mg/kg/injection, schedule: Q01DX009 (ip), vehicle: other, higher = longer survival); 101 % of control (endpoint: median survival time, dose: 50.0 mg/kg/injection, schedule: Q01DX009 (ip), vehicle: other, higher = longer survival).

As for `CC(c1ccccc1)N1C(=O)CSC1=S` (stereo not drawn), where the note is “endpoint: median survival time, dose: 400.0 mg/kg/injection, schedule: Q01DX009 (ip), vehicle: Klucel (hydroxypropylcellulose) (HPC), higher = longer survival”, the T/C was 89 % of control.

As for `NCCc1ccc(O)c(O)c1`, the T/C reads like this: (endpoint: median survival time, dose: 100.0 mg/kg/injection, schedule: Q01DX009 (ip), vehicle: saline, higher = longer survival) 107 % of control; (endpoint: median survival time, dose: 200.0 mg/kg/injection, schedule: Q01DX009 (ip), vehicle: saline, higher = longer survival) 106 % of control; (endpoint: median survival time, dose: 400.0 mg/kg/injection, schedule: Q01DX009 (ip), vehicle: saline, higher = longer survival) 97 % of control; (endpoint: median survival time, dose: 600.0 mg/kg/injection, schedule: Q01DX009 (ip), vehicle: saline, higher = longer survival) 110 % of control.

On to `Cc1nc(N)nc(N)c1-c1ccc(Cl)c(Cl)c1`, for which the T/C (endpoint: median survival time, dose: 1.0 mg/kg/injection, schedule: Q02DX009 (ip), vehicle: Klucel (hydroxypropylcellulose) (HPC), higher = longer survival) was 103 % of control; the T/C (endpoint: median survival time, dose: 2.0 mg/kg/injection, schedule: Q02DX009 (ip), vehicle: Klucel (hydroxypropylcellulose) (HPC), higher = longer survival) is 99 % of control; the T/C (endpoint: median survival time, dose: 4.0 mg/kg/injection, schedule: Q02DX009 (ip), vehicle: Klucel (hydroxypropylcellulose) (HPC), higher = longer survival) is 88 % of control; the T/C (endpoint: median survival time, dose: 8.0 mg/kg/injection, schedule: Q02DX009 (ip), vehicle: Klucel (hydroxypropylcellulose) (HPC), higher = longer survival) is 112 % of control.

Take `CCCCCc1cc(O)c2c(c1)OC(C)(C)c1ccc(C)cc1-2`: the T/C is 113 % of control (endpoint: median survival time, dose: 64.0 mg/kg/injection, schedule: Q01DX009 (ip), vehicle: saline, higher = longer survival); 98 % of control (endpoint: median survival time, dose: 128.0 mg/kg/injection, schedule: Q01DX009 (ip), vehicle: saline, higher = longer survival); 117 % of control (endpoint: median survival time, dose: 256.0 mg/kg/injection, schedule: Q01DX009 (ip), vehicle: saline, higher = longer survival); 98 % of control (endpoint: median survival time, dose: 512.0 mg/kg/injection, schedule: Q01DX009 (ip), vehicle: saline, higher = longer survival).
